From patent US20210024490A1, “METHOD FOR THE PREPARATION OF THE METABOLITES OF (4S)- AND (4R)-4-(4-CYANO-2-METHOXYPHENYL)-5-ETHOXY-2,8-DIMETHYL-1,4-DIHYDRO-1,6-NAPHTHYRIDINE-3-CARBOXAMIDE AND THE USE THEREOF” (Bayer Pharma Aktiengesellschaft, priority 2015, published 2021)

Key:
[1] = molecular target: T1, human mineralocorticoid receptor (MR) (Homo sapiens, UniProt P08235); test: Cellular in vitro assay to determine the inhibitory MR activity (GAL4-steroid hormone receptor chimera, luciferase reporter, CHO K1 cells); format: cell-based; conditions: antagonism of aldosterone-stimulated GAL4-MR chimera
T1 construct: expressed in transfected cells; host or cells: CHO K1 (Chinese hamster ovary), stably transfected
T1 sequence (P08235 734-984 limits assumed): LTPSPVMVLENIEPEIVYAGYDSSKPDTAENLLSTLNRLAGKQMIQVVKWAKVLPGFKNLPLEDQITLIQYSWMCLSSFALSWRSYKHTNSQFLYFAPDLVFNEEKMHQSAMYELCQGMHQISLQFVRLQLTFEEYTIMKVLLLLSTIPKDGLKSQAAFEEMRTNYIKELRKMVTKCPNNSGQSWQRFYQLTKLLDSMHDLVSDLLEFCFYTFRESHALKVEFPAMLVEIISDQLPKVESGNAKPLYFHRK
From the text: B-1. Cellular In Vitro Assay to Determine the Inhibitory MR Activity and MR Selectivity Compared with Other Steroid Hormone Receptors
Antagonists of the human mineralocorticoid receptor (MR) are identified, and the efficacy of the compounds described herein is quantified with the aid of a recombinant cell line. The cell is originally derived from a hamster ovary epithelial cell (Chinese Hamster Ovary, CHO K1, ATCC: American Type Culture Collection, VA 20108, USA).
An established chimera system in which the ligand-binding domains of human steroid hormone receptors are fused to the DNA-binding domain of the yeast transcription factor GAL4 is used in this CHO K1 cell line. The GAL4-steroid hormone receptor chimeras produced in this way are cotransfected and stably expressed with a reporter construct in the CHO cells.
To generate the GAL4-steroid hormone receptor chimeras, the GAL4 DNA-binding domain (amino acids 1-147) from the vector pFC2dbd (from Stratagene) is cloned with the PCR-amplified ligand-binding domains of the mineralocorticoid receptor (MR, amino acids 734-985), of the glucocorticoid receptor (GR, amino acids 443-777), of the progesterone receptor (PR, amino acids 680-933) and of the androgen receptor (AR, amino acids 667-919) into the vector pIRES2 (from Clontech). […]
The MR cells are plated out in medium (Optimem, 2.5% FCS, 2 mM glutamine, 10 mM HEPES) in 96-well (or 384- or 1536-well) microliter plates the day before the assay, and are kept in a cell incubator (96% air humidity, 5% v/v CO2, 37° C.). […] After a further incubation time of 5 to 6 hours, the luciferase activity is measured with the aid of a video camera. The relative light units measured give a sigmoidal stimulation curve as a function of the substance concentration. The IC50 values (in mol) are calculated with the aid of the computer program GraphPad PRISM (Version 3.02).

[2] = parameters: species or system humans; conditions: dog, rat, mouse, human, in vivo
From the text: For pharmacokinetic measurements, standards of very high quality had to be prepared in order to be able to carry out reliable quantification. From the structural elucidation of the metabolites (via MS of the serum of various animal species and humans) obtained after administration of (4 S)-4-(4-cyano-2-methoxyphenyl)-5-ethoxy-2,8-dimethyl-1,4-dihydro-1,6-naphthyridine-3-carboxamide of the formula 4S (I), the following 6 main metabolites were found (the absolute stereochemistry of the atropisomers can be assigned according to the Cahn-Ingold-Prelog convention and is specified in parentheses):
If the R enantiomer 4R (I) is used, […]

IC50 [1] | SMILES | main metabolites formed [2]
9.33 µM | CCOc1ncc(C)c2nc(C)c(C(N)=O)c(-c3ccc(C#N)cc3OC)c12 (single isomer, unassigned) [M1a (S)] | –
– | CCOc1ncc(C)c2c1[C@@H](c1ccc(C#N)cc1OC)C(C(N)=O)=C(C)N2 [4R (I), (4R)-4-(4-cyano-2-methoxyphenyl)-5-ethoxy-2,8-dimethyl-1,4-dihydro-1,6-naphthyridine-3-carboxamide] | the metabolites of the b series are principally formed, i.e. M1b (R), M2b (R) and M3b (R)
0.0277 µM | CCOc1ncc(C)c2c1[C@H](c1ccc(C#N)cc1OC)C(C(N)=O)=C(C)N2 [Compound of the formula (I), (4S)-4-(4-cyano-2-methoxyphenyl)-5-ethoxy-2,8-dimethyl-1,4-dihydro-1,6-naphthyridine-3-carboxamide] | metabolized mainly to M1a (S) and the subsequent metabolites M2a (S) and M3a (S)
> 10 µM | CCOc1ncc(C)c2nc(C)c(C(N)=O)c(-c3ccc(C#N)cc3OC)c12 (single isomer, unassigned) [M1b (R)] | –
